The values that follow come from patent publication US11466286B2, “Methods and compositions for conferring and/or enhancing herbicide tolerance using protoporphyrinogen oxidase or variant thereof” (FarmHannong Co., Ltd., priority 2016, dated 2022).

What all share (assay): PPO inhibition assay
What all share (type): biochemical
Common to all, as to settings: herbicide 0-5,000 nM, 50 μM substrate

In assay [1] the test system is CyPPO13 (Synechococcus sp. JA-3-3Ab PPO, SEQ ID NO: 4) variant F373C, MBP fusion. The protocol: (§1) The enzyme activities of PPO protein and PPO protein variants were examined, and inhibition assay by PPO-inhibiting herbicides was conducted. It was confirmed that the PPO protein has low water-solubility, but in case of being expressed as a fusion protein with MBP (maltose binding protein) (MBP-PPO), the PPO protein is able to be stably expressed as water-soluble form. Therefore, the wild type and variant proteins which were expressed in the form of fusion protein with MBP were used in the present test (refer to FIG. 4).
(§2) At first, a substrate of PPO protein, Protoporphyrinogen IX was synthesized. This process was performed in the space where nitrogen gas is streamed. 6 mg of protoporphyrin IX was dissolved in 20% (v/v) EtOH 20 ml, and stirred under dark condition for 30 minutes. The obtained protoporphyrinogen IX solution was put into a 15 ml screw tube in an amount of 800 and flushed with nitrogen gas for 5 minutes. To this, 1 g of sodium amalgam was added and vigorous shaking was performed for 2 minutes. The lid was open to exhaust hydrogen gas in the tube. Thereafter, the lid was closed and incubated for 3 minutes. The […] was filtered using syringe and cellulose membrane filter. To 600 μl of the obtained […], 2M MOPS [3-(N-morpholino)propanesulfonic acid] was added in an amount of approximately 300 thereby adjusting pH to 8.0. To determine the enzyme activity of PPO protein, a reaction mixture was prepared with the following composition (based on 10 ml): 50 mM Tris-Cl (pH 8.0); 50 mM NaCl; 0.04% (v/v) Tween 20; 40 mM glucose (0.072 g); 5 units glucose oxidase (16.6 mg); and 10 units catalase (1 μl).
(§3) Two hundred microliters (200 μl) of reaction mixture containing a purified PPO protein were placed in 96 well plates, and preincubated for 30 min at room temperature to reduce the oxygen concentration by the reaction of glucose oxidase-catalase. The mineral oil was layered and then the reaction was initiated by adding the substrate, […], to a final concentration of 50 μM. The reaction proceeded at room temperature for 30 min and the fluorescence of protoporphyrin IX was measured using Microplate reader (Sense, Hidex) (excitation: 405 nm; emission: 633 nm). To calculate the PPO enzyme activity, protoporphyrinogen IX solution was kept open in the air to oxidize the solution (overnight). To this, 2.7N HCl was added, and the absorbance at 408 nm was measured. A standard curve was generated using standard protoporphyrin IX, and the PPO activity was measured by calibration of protoporphyrin IX using the standard curve of protoporphyrin IX.
(§4) The final concentration of each herbicide was as follows: […]

The subject of assay [2] is CyPPO13 (Synechococcus sp. JA-3-3Ab PPO, SEQ ID NO: 4) variant F373H, MBP fusion. The protocol: as §1, §2, §3, §4
Assay [3] relates to CyPPO13 (Synechococcus sp. JA-3-3Ab PPO, SEQ ID NO: 4) variant F373I, MBP fusion. On the procedure: as §1, §2, §3, §4
The subject of assay [4] is CyPPO13 (Synechococcus sp. JA-3-3Ab PPO, SEQ ID NO: 4) variant F373L, MBP fusion. The protocol: as §1, §2, §3, §4
Assay [5] has as its system CyPPO13 (Synechococcus sp. JA-3-3Ab PPO, SEQ ID NO: 4) variant F373N, MBP fusion. The protocol: as §1, §2, §3, §4
Assay [6] concerns CyPPO13 (Synechococcus sp. JA-3-3Ab PPO, SEQ ID NO: 4) variant F373T, MBP fusion. On the procedure: as §1, §2, §3, §4
Assay [7] concerns CyPPO13 (Synechococcus sp. JA-3-3Ab PPO, SEQ ID NO: 4) variant F373V, MBP fusion. The protocol:
as §1, §2, §3, §4

`COC(=O)CCNC(=O)C(C)Sc1cc(-n2c(=O)cc(C(F)(F)F)n(C)c2=O)c(F)cc1Cl` (stereo not shown) [Tiafenacil]: the IC50 worked out at 212 nM in assay [1]; 114 nM in assay [2]; 135 nM in assay [3]; 141 nM in assay [4]; 40 nM in assay [5]; 818 nM in assay [6]. Further, 339 nM corresponded to half-maximal inhibition in assay [7] (IC50).
